Source: ChEMBL document CHEMBL4819004, “Discovery of selective CDK9 degraders with enhancing antiproliferative activity through PROTAC conversion” (Eur J Med Chem, 2021)
Activity calls are given as the source filed them. No cut-off for these calls is given here.

Experiments:
[1] = target: Cyclin-dependent kinase 9 (Homo sapiens) (UniProt P50750); assay: Inhibition of human full length recombinant CDK9 expressed in bacterial expression system assessed as remaining enzyme activity at 1 uM by competitive binding Kinome scan analysis
[2] = Half life in BALB/c nude mouse xenografted with human MV4-11 cells at 5 mg/kg, iv by LC/MS/MS analysis; assay type: ADME, organism-based; settings: in vivo
[3] = target: Protein cereblon/Cyclin-dependent kinase 7 (Homo sapiens) (UniProt P50613+Q96SW2); assay: PROTAC activity at CRBN/CDK7 in human MV4-11 cells assessed as induction of CDK7 degradation at 31.25 to 500 nM measured after 3 hrs by western blot analysis; assay type: cell-based; settings: dose 31.25-500 nM
MV4-11 [4] = assay: Induction of apoptosis in human MV4-11 cells assessed as early apoptotic cells at 250 nM after 6 hrs by AnnexinV-FITC/propidium iodide staining based flow cytometry (reference value: 5.36 %); assay type: functional
MV4-11 [5] = assay: Induction of apoptosis in human MV4-11 cells assessed as necrotic cells at 500 nM after 6 hrs by AnnexinV-FITC/propidium iodide staining based flow cytometry (reference value: 0.16 %); assay type: functional
MV4-11 [6] = assay: Induction of apoptosis in human MV4-11 cells assessed as late apoptotic cells at 500 nM after 6 hrs by AnnexinV-FITC/propidium iodide staining based flow cytometry (reference value: 4.29%); assay type: functional
[7] = target: Protein cereblon/Cyclin-dependent kinase 2 (Homo sapiens) (UniProt P24941+Q96SW2); assay: PROTAC activity at CRBN/CDK2 in human MV4-11 cells assessed as induction of CDK2 degradation at 31.25 to 500 nM measured after 3 hrs by western blot analysis; assay type: cell-based; settings: dose 31.25-500 nM
MV4-11 [8] = assay: Induction of apoptosis in human MV4-11 cells assessed as late apoptotic cells at 1 nM after 6 hrs by AnnexinV-FITC/propidium iodide staining based flow cytometry (reference value: 4.29%); assay type: functional
[9] = target: T1, Protein cereblon/Cyclin-dependent kinase 9 (Homo sapiens, UniProt P50750+Q96SW2); assay: PROTAC activity at CRBN/CDK9 in human MV4-11 cells assessed as reduction in RNA PolII CTD phosphorylation at Ser5 residue measured after 6 hrs by western blot analysis; assay type: cell-based; settings: dose 31.25-8000 nM
MV4-11 [10] = assay: Induction of apoptosis in human MV4-11 cells assessed as early apoptotic cells at 30 nM after 6 hrs by AnnexinV-FITC/propidium iodide staining based flow cytometry (reference value: 5.36 %); assay type: functional
[11] = target: T1, Protein cereblon/Cyclin-dependent kinase 9; assay: Reversible PROTAC activity at CRBN/CDK9 in human MV4-11 cells assessed as CDK9 degradation at 250 nM incubated for 6 hrs followed by drug wash-out for 12 hrs by western blot analysis; assay type: cell-based
MV4-11 [12] = assay: Induction of apoptosis in human MV4-11 cells assessed as early apoptotic cells at 1 nM after 6 hrs by AnnexinV-FITC/propidium iodide staining based flow cytometry (reference value: 5.36 %); assay type: functional
MV4-11 [13] = assay: Induction of apoptosis in human MV4-11 cells assessed as late apoptotic cells at 30 nM after 6 hrs by AnnexinV-FITC/propidium iodide staining based flow cytometry (reference value: 4.29%); assay type: functional
A549 = assay: Antiproliferative activity against human A549 cells incubated for 72 hrs by MTT assay; assay type: functional, cell-based; settings: A549, 72 h
[14] = target: Protein cereblon/Cyclin-dependent kinase 6 (Homo sapiens) (UniProt Q00534+Q96SW2); assay: PROTAC activity at CRBN/CDK6 in human MV4-11 cells assessed as induction of CDK6 degradation at 31.25 to 500 nM measured after 3 hrs by western blot analysis; assay type: cell-based; settings: dose 31.25-500 nM
MOLM-13 = assay: Antiproliferative activity against human MOLM-13 cells incubated for 72 hrs by MTT assay; assay type: functional, cell-based; settings: MOLM-13, 72 h
MV4-11 [15] = assay: Induction of apoptosis in human MV4-11 cells assessed as viable cells at 1 nM after 6 hrs by AnnexinV-FITC/propidium iodide staining based flow cytometry (reference value: 90.1 %); assay type: functional; settings: read-out: Activity
MV4-11 [16] = assay: Induction of apoptosis in human MV4-11 cells assessed as total apoptotic cells at 30 nM after 6 hrs by AnnexinV-FITC/propidium iodide staining based flow cytometry (reference value: 9.75 %); assay type: functional
[17] = target: T1, Protein cereblon/Cyclin-dependent kinase 9; assay: PROTAC activity at CRBN/CDK9 in human MV4-11 cells assessed as reduction in RNA PolII CTD phosphorylation at Ser2 residue measured after 6 hrs by western blot analysis; assay type: cell-based; settings: dose 31.25-8000 nM
CDK9/cyclin T1 = CDK9/cyclin T1 (Homo sapiens, UniProt P50750); assay: Inhibition of CDK9/cyclin T (unknown origin) using YSPTSPSYSPTSPSYSPTSPKKK or histone H1 as substrate incubated for 2 hrs in presence of [gamma-33P]ATP by radioactive filter binding assay; assay type: protein-complex assay
[18] = target: T1, Protein cereblon/Cyclin-dependent kinase 9; assay: Protac activity at CRBN/CDK9 in human MV4-11 cells assessed as induction of CDK9 degradation at 250 nM pretreated for 2 hrs with E3 ligase cereblon ligand, pomalidomide followed by incubation with compound for 6 hrs by western blot analysis; assay type: cell-based
MV4-11 [19] = assay: Induction of apoptosis in human MV4-11 cells assessed as necrotic cells at 1000 nM after 6 hrs by AnnexinV-FITC/propidium iodide staining based flow cytometry (reference value: 0.16 %); assay type: functional
[20] = target: T1, Protein cereblon/Cyclin-dependent kinase 9; assay: Protac activity at CRBN/CDK9 in human MOLM-13 cells assessed as CDK9 degradation rate at 500 nM incubated for 6 hrs by Western blot assay relative to control; assay type: cell-based
MCF7 = assay: Antiproliferative activity against human MCF7 cells incubated for 72 hrs by MTT assay; assay type: functional, cell-based; settings: MCF7, 72 h
[21] = target: T1, Protein cereblon/Cyclin-dependent kinase 9; assay: Protac activity at CRBN/CDK9 in human MV4-11 cells assessed as CDK9 degradation rate at 500 nM incubated for 6 hrs by Western blot assay relative to control; assay type: cell-based
MV4-11 [22] = assay: Induction of apoptosis in human MV4-11 cells assessed as total apoptotic cells at 1 nM after 6 hrs by AnnexinV-FITC/propidium iodide staining based flow cytometry (reference value: 9.75 %); assay type: functional

Activity [1]: < 10% | half-life [2]: 1.3 h | Activity [3]: inactive | Activity [7]: inactive | Activity [9]: Dose-Dependent Effect | Activity [11]: Active | IC50 (A549): 1220 nM | Activity [14]: inactive | IC50 (MOLM-13): 120 nM | Activity [17]: Dose-Dependent Effect | IC50 (CDK9/cyclin T1): 8.68 nM | Activity [18]: inactive | Activity [20]: 100% | IC50 (MCF7): 3120 nM | Activity [21]: 100%
SMILES: COc1cc(F)ccc1-c1ncnc(Nc2cccc(CS(C)(=O)=NC(=O)CCCCCCCC(=O)NCCNc3cccc4c3C(=O)N(C3CCC(=O)NC3=O)C4=O)c2)n1 (stereo unspecified)
Activity (MV4-11 [4]): 45.1% | Activity (MV4-11 [5]): 0.72% | Activity (MV4-11 [6]): 13.7% | Activity (MV4-11 [8]): 14% | Activity (MV4-11 [10]): 7.46% | Activity (MV4-11 [12]): 6.13% | Activity (MV4-11 [13]): 14.8% | viability at 0.001 µM (MV4-11 [15]): 79.1% | Activity (MV4-11 [16]): 22.3% | Activity (MV4-11 [19]): 0.4% | Activity (MV4-11 [22]): 22.1%
